Source: patent US12669496B2, “Method for evaluating and/or screening a control agent for tissue morphology and/or tissue function” (ROHTO PHARMACEUTICAL CO., LTD., priority 2020, dated 2026)

Assays:
COL1A1 = assay: Real-time PCR of COL1A1 gene expression in skin equivalent models; type: cell-based, human; conditions: 6 to 48 hours
MRTFA [1] = assay: Real-time PCR of MRTFA gene expression in skin equivalent models; type: cell-based, human; conditions: 10 μM, 6 to 48 hours; tensional homeostatic skin equivalent model (confirmed only in this model)
HAS3 = assay: Real-time PCR of HAS3 gene expression in skin equivalent models; conditions: 10 μM
type I collagen = assay: Immunohistochemical staining of type I collagen in skin equivalent; type: cell-based, human
MRTFA [2] = assay: Immunohistochemical staining of MRTFA in skin equivalent models; type: cell-based, human; conditions: 10 nM, 6 to 48 hours; tensional homeostatic model; to levels approximately equivalent to tension-released model
MRTFA [3] = assay: Image analysis of nuclear import rates of MRTFA; type: cell-based, human; conditions: 10 nM, 6 to 48 hours; image analysis of immunohistochemical staining
αSMA = assay: Immunohistochemical staining of αSMA in skin equivalent models; type: cell-based, human; conditions: 10 nM, 6 to 48 hours; tensional homeostatic model; to levels approximately equivalent to tension-released model
[4] = tested on: Tensional homeostatic skin equivalent; assay: Fluorescent staining of actin cytoskeleton and cell membrane (tissue orientation); type: cell-based, human; conditions: 10 nM, to level approximately equivalent to tension-released model
MMP1 = assay: Real-time PCR of MMP1 gene expression in skin equivalent models; type: cell-based, human; conditions: 10 nM, 6 to 48 hours; tensional homeostatic model; to the equivalent level in tension-released skin equivalent
COL1A2 = assay: Real-time PCR of COL1A2 gene expression in skin equivalent models; type: cell-based, human; conditions: 10 nM, 6 to 48 hours; tensional homeostatic model; to the equivalent level in tension-released skin equivalent
ELN = assay: Real-time PCR of ELN gene expression in skin equivalent models; type: cell-based, human; conditions: 10 nM, 6 to 48 hours; tensional homeostatic model; to the equivalent level in tension-released skin equivalent
ITGA2 = assay: Immunohistochemical staining of ITGA2 in skin equivalent models; type: cell-based, human; conditions: 10 nM, 6 to 48 hours; tensional homeostatic model; to levels approximately equivalent to tension-released model
FBN1 = assay: Real-time PCR of FBN1 gene expression in skin equivalent models; type: cell-based, human; conditions: 10 nM, 6 to 48 hours; tensional homeostatic model; to the equivalent level in tension-released skin equivalent

Compound	COL1A1 gene expression (COL1A1; 10 μM, Tensional homeostatic skin equivalent vs control group (confirmed only in this model))	MRTFA gene expression (MRTFA [1])	HAS3 gene expression (HAS3; 6 to 48 hours, each skin equivalent model, compared with all the control groups)	ratio of the HAS3 expression promotion (HAS3; Tensional homeostatic skin equivalent compared with the other models)	expression of type I collagen (collagen fiber formation) (type I collagen; 10 μM, Tensional homeostatic skin model, vs control group)	expression level of MRTFA (MRTFA [2])	gene expression of COL1A1 (COL1A1; 10 nM, tensional homeostatic model, to the equivalent level in tension-released skin equivalent)	nuclear import rates of MRTFA (MRTFA [3])	expression level of αSMA (αSMA)	orientations of the cytoskeletons, cell membranes, and nuclei in the tension direction [4]	gene expression of MMP1 (MMP1)	gene expression of COL1A2 (COL1A2)	gene expression of ELN (ELN)	expression level of type I collagen (collagen fiber formation) (type I collagen; 10 nM, Tensional homeostatic skin equivalent, to level approximately equivalent to tension-released model)	expression level of ITGA2 (ITGA2)	gene expression of FBN1 (FBN1)
CC1=C(/C=C/C(C)=C/C=C/C(C)=C/C(=O)O)C(C)(C)CCC1 [ATRA, all-trans retinoic acid]	significant promotion of gene expression	significant increase	significant promotion of gene expression	highest value	increased	–	–	–	–	–	–	–	–	–	–	–
C[C@@H](N)[C@H]1CC[C@H](C(=O)Nc2ccncc2)CC1 [Y27632]	–	–	–	–	–	reduces the expression levels	significantly inhibited	significantly reduced	reduces the expression levels	reduced the orientations	significantly increased	significantly inhibited	significantly inhibited	reduced	reduces the expression levels	significantly inhibited
